From PubChem BioAssay AID248 (DTP/NCI, 2004)
Values joined by “and” are separate entries in the source; they are usually repeats but may differ in a detail not shown here. Identical values can stand only once. Inconclusive results and toxic doses are left out.

System: L1210 leukemia ip in BDF1 mice, survival T/C
Assay: NCI In Vivo Anticancer Drug Screen. Data for tumor model L1210 Leukemia (intraperitoneal) in B6D2F1 (BDF1) mice
Conditions: endpoint: mean survival time, higher = longer survival
Procedure, shortened: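 Survival endpoint. Drug-treated group vs vehicle group, expressed as T divided by C. Tumor passaged by transplantation.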

[1] = dose: 100.0 mg/kg/injection, schedule: Q01DX001 (ip), vehicle: Klucel (hydroxypropylcellulose) (HPC)
[2] = dose: 100.0 mg/kg/injection, schedule: Q01DX009 (ip), vehicle: Klucel (hydroxypropylcellulose) (HPC)
[3] = dose: 200.0 mg/kg/injection, schedule: Q01DX001 (ip), vehicle: Klucel (hydroxypropylcellulose) (HPC)
[4] = dose: 200.0 mg/kg/injection, schedule: Q01DX009 (ip), vehicle: Klucel (hydroxypropylcellulose) (HPC)
[5] = dose: 400.0 mg/kg/injection, schedule: Q01DX001 (ip), vehicle: Klucel (hydroxypropylcellulose) (HPC)
[6] = dose: 100.0 mg/kg/injection, schedule: Q04DX003 (ip), vehicle: Klucel (hydroxypropylcellulose) (HPC)
[7] = dose: 200.0 mg/kg/injection, schedule: Q04DX003 (ip), vehicle: Klucel (hydroxypropylcellulose) (HPC)
[8] = dose: 400.0 mg/kg/injection, schedule: Q04DX003 (ip), vehicle: Klucel (hydroxypropylcellulose) (HPC)
[9] = dose: 100.0 mg/kg/injection, schedule: Q01DX009 (ip), vehicle: saline with Tween-80
[10] = dose: 100.0 mg/kg/injection, schedule: Q04DX003 (ip), vehicle: saline with Tween-80
[11] = dose: 200.0 mg/kg/injection, schedule: Q01DX009 (ip), vehicle: saline with Tween-80
[12] = dose: 200.0 mg/kg/injection, schedule: Q04DX003 (ip), vehicle: saline with Tween-80
[13] = dose: 400.0 mg/kg/injection, schedule: Q01DX009 (ip), vehicle: saline with Tween-80
[14] = dose: 400.0 mg/kg/injection, schedule: Q04DX003 (ip), vehicle: saline with Tween-80
[15] = dose: 100.0 mg/kg/injection, schedule: Q04DX003 (ip), vehicle: saline
[16] = dose: 200.0 mg/kg/injection, schedule: Q04DX003 (ip), vehicle: saline
[17] = dose: 400.0 mg/kg/injection, schedule: Q04DX003 (ip), vehicle: saline
[18] = dose: 100.0 mg/kg/injection, schedule: Q01DX001 (ip), vehicle: saline with Tween-80
[19] = dose: 100.0 mg/kg/injection, schedule: Q04DX002 (ip), vehicle: saline with Tween-80
[20] = dose: 200.0 mg/kg/injection, schedule: Q01DX001 (ip), vehicle: saline with Tween-80
[21] = dose: 200.0 mg/kg/injection, schedule: Q04DX002 (ip), vehicle: saline with Tween-80
[22] = dose: 400.0 mg/kg/injection, schedule: Q01DX001 (ip), vehicle: saline with Tween-80
[23] = dose: 400.0 mg/kg/injection, schedule: Q04DX002 (ip), vehicle: saline with Tween-80
[24] = dose: 50.0 mg/kg/injection, schedule: Q01DX009 (ip), vehicle: saline with Tween-80

With Nc1ccn([C@@H](C=O)O[C@@H](C=O)CO)c(=O)n1 the T/C (dose: 35.0 mg/kg/injection, schedule: Q01DX009 (ip), vehicle: water) was 111 % of control, the T/C (dose: 35.0 mg/kg/injection, schedule: Q01DX Z (ip), vehicle: water) was 107 % of control and the T/C (dose: 70.0 mg/kg/injection, schedule: Q01DX009 (ip), vehicle: water) was 122 % of control. For the same compound, the T/C (dose: 70.0 mg/kg/injection, schedule: Q01DX Z (ip), vehicle: water) was 123 % of control and the T/C (dose: 140.0 mg/kg/injection, schedule: Q01DX009 (ip), vehicle: water) was 161 % of control.
With CCOC(=O)C(CC(=O)O)C1=CCCc2ccccc21 (stereo not drawn) the T/C [1] was 96 % of control, the T/C [2] was 90 % of control and the T/C [3] was 104 % of control. The T/C [4] was 91 % of control, the T/C [5] was 90 % of control and the T/C (dose: 400.0 mg/kg/injection, schedule: Q01DX009 (ip), vehicle: Klucel (hydroxypropylcellulose) (HPC)) was 90 % of control.
In the case of O=C(Nc1ccccc1C(F)(F)F)c1ccc(Cl)c(Cl)c1, the T/C [2] is reported as 92 % of control, the T/C [6] is reported as 91 % of control and the T/C [4] is reported as 89 % of control. For the same compound, the T/C [7] was 90 % of control and the T/C [8] was 88 % of control.
For Clc1ccc(C(=Cc2ccccc2Br)c2ccc(Cl)cc2)cc1, the T/C [9] was 100 % of control, the T/C [10] was 98 % of control and the T/C [11] was 100 % of control. The T/C [12] was 98 % of control, the T/C [13] was 96 % of control and the T/C [14] was 101 % of control.
With CCCCCCCCCCCCCCCC(=O)N(CCCCN(CCCN(C)C)C(=O)CCCCCCCCCCCCCCC)CCCN(C)C the T/C [10] was 91 % of control.
In the case of O=C(Oc1ccc([N+](=O)[O-])cc1)c1ccc(C[P+](c2ccccc2)(c2ccccc2)c2ccccc2)cc1, the T/C (dose: 100.0 mg/kg/injection, schedule: Q01DX009 (ip), vehicle: saline) is reported as 98 % of control, the T/C [15] is reported as 93 % of control and the T/C (dose: 200.0 mg/kg/injection, schedule: Q01DX009 (ip), vehicle: saline) is reported as 98 % of control. For the same compound, the T/C [16] was 90 % of control, the T/C (dose: 400.0 mg/kg/injection, schedule: Q01DX009 (ip), vehicle: saline) was 96 % of control and the T/C [17] was 93 % of control.
With NC(=O)c1ccc(Cl)c(Cl)c1 the T/C [10] was 97 % of control, the T/C [12] was 95 % of control and the T/C [14] was 91 % of control.
With CCCC(=O)Nc1cc(C)ccc1N=Nc1ccc(C)cc1 the T/C [18] was 95 % of control, the T/C [9] was 97 % of control and 105 % of control and the T/C [19] was 90 % of control and 92 % of control. The T/C [10] was 100 % of control, the T/C [20] was 103 % of control and the T/C [11] was 88 % of control and 90 % of control. For the same compound, the T/C [21] was 97 % of control and 92 % of control, the T/C [12] was 97 % of control and the T/C [22] was 98 % of control. The T/C [13] was 97 % of control, the T/C [23] was 97 % of control and the T/C [14] was 97 % of control.
For COC(=O)C1C(O)CN2CCCC12 (stereo not drawn), the T/C [15] was 93 % of control, the T/C [16] was 93 % of control and the T/C [17] was 93 % of control.
With COC1OC(CN=[N+]=[N-])C(N=[N+]=[N-])C(OS(C)(=O)=O)C1OS(C)(=O)=O (stereo not drawn) the T/C [10] was 92 % of control, the T/C [12] was 90 % of control and the T/C [14] was 94 % of control.
C/C(=C1/c2ccccc2-c2n[nH]c(C)c21)S(=O)(=O)O was tested, and the T/C [9] was 95 % of control, the T/C [10] was 94 % of control and the T/C [11] was 88 % of control. The T/C [12] was 105 % of control, the T/C [13] was 95 % of control and the T/C [14] was 91 % of control.
In the case of O=C(NCCCCNC(=O)Nc1cccc(C2=NCCN2)c1)Nc1cccc(C2=NCCN2)c1, the T/C (dose: 12.0 mg/kg/injection, schedule: Q01DX Z (ip), vehicle: carboxymethylcellulose (CMC)) is reported as 114 % of control, the T/C (dose: 23.0 mg/kg/injection, schedule: Q01DX Z (ip), vehicle: carboxymethylcellulose (CMC)) is reported as 100 % of control and the T/C (dose: 46.0 mg/kg/injection, schedule: Q01DX Z (ip), vehicle: carboxymethylcellulose (CMC)) is reported as 108 % of control.
COc1ccc([N+](=O)[O-])cc1NS(=O)(=O)c1c(C)cc(C)cc1C was tested, and the T/C [24] was 94 % of control and 88 % of control, the T/C [18] was 92 % of control and the T/C [9] was 94 % of control and 97 % of control. The T/C [19] was 107 % of control, the T/C [10] was 98 % of control and the T/C [20] was 104 % of control. For the same compound, the T/C [11] was 97 % of control and 103 % of control, the T/C [21] was 103 % of control and the T/C [12] was 97 % of control. For the same compound, the T/C [22] was 92 % of control, the T/C [13] was 97 % of control and the T/C [23] was 103 % of control. For the same compound, the T/C [14] was 93 % of control.
For NC(N)=N/N=C/c1ccc(O)cc1, the T/C (dose: 15.0 mg/kg/injection, schedule: Q01DX Z (ip), vehicle: saline) was 104 % of control, the T/C (dose: 30.0 mg/kg/injection, schedule: Q01DX Z (ip), vehicle: saline) was 88 % of control and the T/C (dose: 30.0 mg/kg/injection, schedule: Q01DX Z (oral), vehicle: saline) was 94 % of control. For the same compound, the T/C (dose: 60.0 mg/kg/injection, schedule: Q01DX Z (ip), vehicle: saline) was 95 % of control, the T/C (dose: 60.0 mg/kg/injection, schedule: Q01DX Z (oral), vehicle: saline) was 94 % of control and the T/C (dose: 120.0 mg/kg/injection, schedule: Q01DX Z (oral), vehicle: saline) was 90 % of control. The T/C (dose: 240.0 mg/kg/injection, schedule: Q01DX Z (oral), vehicle: saline) was 100 % of control.
In the case of O=C(COc1ccc(Cl)cc1Cl)Nc1cccnc1, the T/C [1] is reported as 93 % of control, the T/C [10] is reported as 94 % of control and the T/C [3] is reported as 89 % of control. For the same compound, the T/C [12] was 94 % of control and the T/C [5] was 96 % of control.
With NC(=O)NNC(=O)NNC(N)=O the T/C (dose: 50.0 mg/kg/injection, schedule: Q01DX001 (ip), vehicle: carboxymethylcellulose (CMC)) was 95 % of control, the T/C (dose: 100.0 mg/kg/injection, schedule: Q01DX001 (ip), vehicle: carboxymethylcellulose (CMC)) was 95 % of control and the T/C (dose: 200.0 mg/kg/injection, schedule: Q01DX001 (ip), vehicle: carboxymethylcellulose (CMC)) was 95 % of control. For the same compound, the T/C (dose: 400.0 mg/kg/injection, schedule: Q01DX001 (ip), vehicle: carboxymethylcellulose (CMC)) was 103 % of control.
For Nc1cc2scnc2c(N)n1, the T/C [1] was 94 % of control, the T/C [3] was 91 % of control and the T/C [5] was 86 % of control.
For O=C(NCCCl)NC1CCc2ccccc2C1 (stereo not drawn), the T/C [6] was 93 % of control, the T/C [7] was 88 % of control and the T/C [8] was 89 % of control.
For O=S(NOCCCCONS(=O)c1ccccc1)c1ccccc1 (stereo not drawn), the T/C (dose: 25.0 mg/kg/injection, schedule: Q01DX001 (ip), vehicle: saline with Tween-80) was 100 % of control, the T/C (dose: 25.0 mg/kg/injection, schedule: Q04DX003 (ip), vehicle: saline with Tween-80) was 93 % of control and the T/C (dose: 50.0 mg/kg/injection, schedule: Q01DX001 (ip), vehicle: saline with Tween-80) was 95 % of control. For the same compound, the T/C [24] was 94 % of control and 102 % of control, the T/C (dose: 50.0 mg/kg/injection, schedule: Q04DX003 (ip), vehicle: saline with Tween-80) was 96 % of control and the T/C [18] was 95 % of control and 90 % of control. The T/C [9] was 95 % of control and 96 % of control, the T/C [19] was 98 % of control and 89 % of control and the T/C [10] was 89 % of control. For the same compound, the T/C [20] was 90 % of control, the T/C [11] was 96 % of control and 92 % of control and the T/C [21] was 100 % of control and 91 % of control. The T/C [12] was 94 % of control, the T/C [13] was 90 % of control and the T/C [23] was 102 % of control.
For O=C(C=C(C(F)(F)F)C(F)(F)F)c1c2ccccc2cc2ccccc12, the T/C (dose: 0.18 mg/kg/injection, schedule: Q01DX009 (ip), vehicle: DMSO) was 87 % of control, the T/C (dose: 0.37 mg/kg/injection, schedule: Q01DX009 (ip), vehicle: DMSO) was 99 % of control and the T/C (dose: 0.75 mg/kg/injection, schedule: Q01DX009 (ip), vehicle: DMSO) was 97 % of control. The T/C (dose: 1.5 mg/kg/injection, schedule: Q01DX009 (ip), vehicle: DMSO) was 93 % of control, the T/C (dose: 3.0 mg/kg/injection, schedule: Q01DX009 (ip), vehicle: DMSO) was 93 % of control and 88 % of control and the T/C (dose: 3.0 mg/kg/injection, schedule: Q04DX003 (ip), vehicle: DMSO) was 100 % of control. The T/C (dose: 6.0 mg/kg/injection, schedule: Q04DX003 (ip), vehicle: DMSO) was 98 % of control, the T/C (dose: 12.0 mg/kg/injection, schedule: Q04DX003 (ip), vehicle: DMSO) was 97 % of control and the T/C (dose: 12.5 mg/kg/injection, schedule: Q04DX003 (ip), vehicle: DMSO) was 93 % of control.
